Experimental data published in ChEMBL document CHEMBL4393680, “Design, synthesis and biological evaluation of novel thioquinazolinone-based 2-aminobenzamide derivatives as potent histone deacetylase (HDAC) inhibitors” (Eur J Med Chem, 2019).

Legend:
[1] = tested on: HCT-116; assay: Antiproliferative activity against human HCT116 cells assessed as reduction in cell growth at 2 uM incubated for 72 hrs by CCK-8 assay relative to control; type: functional; details: HCT-116, 72 h
[2] = tested on: SMMC-7721; assay: Antiproliferative activity against human SMMC7721 cells assessed as reduction in cell growth at 2 uM incubated for 72 hrs by CCK-8 assay relative to control; type: functional; details: SMMC-7721, 72 h
[3] = tested on: A-375; assay: Antiproliferative activity against human A375 cells assessed as reduction in cell growth at 8 uM incubated for 72 hrs by CCK-8 assay relative to control; type: functional; details: A-375, 72 h
[4] = tested on: A549; assay: Antiproliferative activity against human A549 cells assessed as reduction in cell growth incubated for 72 hrs by CCK-8 assay; type: functional, cell-based; details: A549, 72 h
[5] = tested on: A549; assay: Antiproliferative activity against human A549 cells assessed as reduction in cell growth at 8 uM incubated for 72 hrs by CCK-8 assay relative to control; type: functional; details: A549, 72 h
[6] = tested on: A-375; assay: Antiproliferative activity against human A375 cells assessed as reduction in cell growth at 2 uM incubated for 72 hrs by CCK-8 assay relative to control; type: functional; details: A-375, 72 h
[7] = tested on: SMMC-7721; assay: Antiproliferative activity against human SMMC7721 cells assessed as reduction in cell growth at 8 uM incubated for 72 hrs by CCK-8 assay relative to control; type: functional; details: SMMC-7721, 72 h
[8] = tested on: HCT-116; assay: Antiproliferative activity against human HCT116 cells assessed as reduction in cell growth at 8 uM incubated for 72 hrs by CCK-8 assay relative to control; type: functional; details: HCT-116, 72 h
[9] = tested on: HeLa; assay: Antiproliferative activity against human HeLa cells assessed as reduction in cell growth at 8 uM incubated for 72 hrs by CCK-8 assay relative to control; type: functional
[10] = tested on: HeLa; assay: Antiproliferative activity against human HeLa cells assessed as reduction in cell growth at 2 uM incubated for 72 hrs by CCK-8 assay relative to control; type: functional
[11] = tested on: A549; assay: Antiproliferative activity against human A549 cells assessed as reduction in cell growth at 2 uM incubated for 72 hrs by CCK-8 assay relative to control; type: functional; details: A549, 72 h
[12] = tested on: NIH3T3; assay: Cytotoxicity against mouse NIH/3T3 cells assessed as reduction in cell viability after 48 hrs by CCK8 assay; type: cell-based; details: NIH3T3, 48 h
[13] = tested on: HeLa; assay: Antiproliferative activity against human HeLa cells assessed as reduction in cell growth incubated for 72 hrs by CCK-8 assay; type: functional, cell-based
[14] = tested on: SMMC-7721; assay: Induction of apoptosis in human SMMC7721 cells assessed as early apoptotic cells at 4 uM incubated for 48 hrs by Annexin-V-FITC/propidium iodide staining based flow cytometry (Rvb=2.88%); type: functional
[15] = tested on: SMMC-7721; assay: Induction of apoptosis in human SMMC7721 cells assessed as viable cells at 4 uM incubated for 48 hrs by Annexin-V-FITC/propidium iodide staining based flow cytometry (Rvb=93.5%); type: functional; details: SMMC-7721, 48 h, read-out: Activity
[16] = tested on: SMMC-7721; assay: Induction of apoptosis in human SMMC7721 cells assessed as necrotic cells at 4 uM incubated for 48 hrs by Annexin-V-FITC/propidium iodide staining based flow cytometry (Rvb=1.88%); type: functional
[17] = tested on: SMMC-7721; assay: Cell cycle arrest in human SMMC7721 cells assessed as accumulation at G0/G1 phase at 1 uM incubated for 48 hrs by propidium iodide staining based flow cytometry (Rvb=77%); type: functional
[18] = tested on: SMMC-7721; assay: Cell cycle arrest in human SMMC7721 cells assessed as accumulation at S phase at 4 uM incubated for 48 hrs by propidium iodide staining based flow cytometry (Rvb=6.83%); type: functional
[19] = tested on: SMMC-7721; assay: Cell cycle arrest in human SMMC7721 cells assessed as accumulation at G0/G1 phase at 0.25 uM incubated for 48 hrs by propidium iodide staining based flow cytometry (Rvb=77%); type: functional
[20] = tested on: SMMC-7721; assay: Induction of apoptosis in human SMMC7721 cells assessed as early apoptotic cells at 0.25 uM incubated for 48 hrs by Annexin-V-FITC/propidium iodide staining based flow cytometry (Rvb=2.88%); type: functional
[21] = tested on: SMMC-7721; assay: Induction of apoptosis in human SMMC7721 cells assessed as viable cells at 1 uM incubated for 48 hrs by Annexin-V-FITC/propidium iodide staining based flow cytometry (Rvb=93.5%); type: functional; details: SMMC-7721, 48 h, read-out: Activity
[22] = tested on: SMMC-7721; assay: Induction of apoptosis in human SMMC7721 cells assessed as necrotic cells at 0.25 uM incubated for 48 hrs by Annexin-V-FITC/propidium iodide staining based flow cytometry (Rvb=1.88%); type: functional
[23] = tested on: SMMC-7721; assay: Cell cycle arrest in human SMMC7721 cells assessed as accumulation at S phase at 0.25 uM incubated for 48 hrs by propidium iodide staining based flow cytometry (Rvb=6.83%); type: functional
[24] = tested on: SMMC-7721; assay: Cell cycle arrest in human SMMC7721 cells assessed as accumulation at G2/M phase at 4 uM incubated for 48 hrs by propidium iodide staining based flow cytometry (Rvb=16.17%); type: functional
[25] = tested on: SMMC-7721; assay: Induction of apoptosis in human SMMC7721 cells assessed as late apoptotic cells at 1 uM incubated for 48 hrs by Annexin-V-FITC/propidium iodide staining based flow cytometry (Rvb=1.73%); type: functional
[26] = tested on: SMMC-7721; assay: Induction of apoptosis in human SMMC7721 cells assessed as viable cells at 0.25 uM incubated for 48 hrs by Annexin-V-FITC/propidium iodide staining based flow cytometry (Rvb=93.5%); type: functional; details: SMMC-7721, 48 h, read-out: Activity
[27] = tested on: SMMC-7721; assay: Induction of apoptosis in human SMMC7721 cells assessed as late apoptotic cells at 0.25 uM incubated for 48 hrs by Annexin-V-FITC/propidium iodide staining based flow cytometry (Rvb=1.73%); type: functional
[28] = tested on: SMMC-7721; assay: Cell cycle arrest in human SMMC7721 cells assessed as accumulation at G0/G1 phase at 4 uM incubated for 48 hrs by propidium iodide staining based flow cytometry (Rvb=77%); type: functional
[29] = tested on: SMMC-7721; assay: Cell cycle arrest in human SMMC7721 cells assessed as accumulation at G2/M phase at 0.25 uM incubated for 48 hrs by propidium iodide staining based flow cytometry (Rvb=16.17%); type: functional
[30] = tested on: SMMC-7721; assay: Cell cycle arrest in human SMMC7721 cells assessed as accumulation at G2/M phase at 1 uM incubated for 48 hrs by propidium iodide staining based flow cytometry (Rvb=16.17%); type: functional
[31] = tested on: SMMC-7721; assay: Cell cycle arrest in human SMMC7721 cells assessed as accumulation at S phase at 1 uM incubated for 48 hrs by propidium iodide staining based flow cytometry (Rvb=6.83%); type: functional
[32] = tested on: SMMC-7721; assay: Induction of apoptosis in human SMMC7721 cells assessed as early apoptotic cells at 1 uM incubated for 48 hrs by Annexin-V-FITC/propidium iodide staining based flow cytometry (Rvb=2.88%); type: functional
[33] = tested on: SMMC-7721; assay: Induction of apoptosis in human SMMC7721 cells assessed as late apoptotic cells at 4 uM incubated for 48 hrs by Annexin-V-FITC/propidium iodide staining based flow cytometry (Rvb=1.73%); type: functional
[34] = tested on: SMMC-7721; assay: Induction of apoptosis in human SMMC7721 cells assessed as necrotic cells at 1 uM incubated for 48 hrs by Annexin-V-FITC/propidium iodide staining based flow cytometry (Rvb=1.88%); type: functional
[35] = tested on: SMMC-7721; assay: Antiproliferative activity against human SMMC7721 cells assessed as reduction in cell growth incubated for 72 hrs by CCK-8 assay; type: functional, cell-based; details: SMMC-7721, 72 h
[36] = tested on: A549; assay: Antitumor activity against human A549 cells xenografted in BALB/C mouse assessed as tumor growth inhibition at 25 mg/kg, ip bid for 21 days measured at 3 days interval during compound dosing relative to control; type: functional; details: read-out: TGI
[37] = tested on: A-375; assay: Antiproliferative activity against human A375 cells assessed as reduction in cell growth incubated for 72 hrs by CCK-8 assay; type: functional, cell-based; details: A-375, 72 h
[38] = tested on: HCT-116; assay: Antiproliferative activity against human HCT116 cells assessed as reduction in cell growth incubated for 72 hrs by CCK-8 assay; type: functional, cell-based; details: HCT-116, 72 h

IC50 [4] | IC50 [13] | SMILES | inhibition at 2 µM [1] | inhibition at 2 µM [2] | inhibition at 8 µM [3] | inhibition at 8 µM [5] | inhibition at 2 µM [6] | inhibition at 8 µM [7] | inhibition at 8 µM [8] | inhibition at 8 µM [9] | inhibition at 2 µM [10] | inhibition at 2 µM [11] | IC50 [12] | Activity [14] | viability at 4 µM [15] | Activity [16] | Activity [17] | Activity [18] | Activity [19] | Activity [20] | other results
3.96 µM |  | CCCn1c(SCc2ccc(/C=C/C(=O)Nc3ccccc3N)cc2)nc2cc(Cl)ccc2c1=O | 18.2% | 6.6% | 48.2% | 61.5% | 20.5% | 40.2% | 27.3% | 41.5% | 32.7% | 34.3% |  |  |  |  |  |  |  |  | 
7.15 µM | 2.36 µM | Nc1ccccc1NC(=O)c1ccc(CNC(=O)OCc2cccnc2)cc1 [ENTINOSTAT] | 67.3% | 28.2% | 83.1% | 47.3% | 30.2% | 48.7% | 72.3% | 89.8% | 42.4% | 20% | 2.42 µM | 12.5% | 53.9% | 5.64% | 76.1% | 14.21% | 75.1% | 4.13% | viability at 1 µM [21]: 81.5%; Activity [22]: 1.18%; Activity [23]: 9.47%; Activity [24]: 14.35%; Activity [25]: 9.39%; viability at 0.25 µM [26]: 91.4%; Activity [27]: 3.31%; Activity [28]: 71.44%; Activity [29]: 15.43%; Activity [30]: 14.35%; Activity [31]: 9.55%; Activity [32]: 6.66%; Activity [33]: 27.9%; Activity [34]: 2.5%
 | 18.8 µM | CC(=O)Nc1ccc(C(=O)Nc2ccccc2N)cc1 [TACEDINALINE] | 13% | 23.5% | 33.5% | 29.1% | 13.4% | 29.1% | 44% | 32.4% | 13.4% | 23.5% | 9.05 µM | 10.2% | 65.7% | 4.85% | 75.86% | 11.67% | 76.9% | 4.7% | IC50 [35]: > 32 µM; viability at 1 µM [21]: 86.5%; Activity [22]: 1.55%; Activity [23]: 15.37%; Activity [24]: 18.21%; Activity [25]: 6.72%; viability at 0.25 µM [26]: 88.4%; Activity [27]: 5.37%; Activity [28]: 70.12%; Activity [29]: 7.73%; Activity [30]: 6.73%; Activity [31]: 17.41%; Activity [32]: 4.99%; Activity [33]: 19.3%; Activity [34]: 1.74%; inhibition in vivo at 25 mg/kg [36]: 46.8%
6.62 µM | 2.69 µM | COc1ccc2c(=O)n(CC/C=C/[S+](C)[O-])c(SCc3ccc(C(=O)Nc4ccccc4N)cc3)nc2c1 (centres undefined) | 59% | 6.9% | 67.2% | 56.3% | 34.4% | 57.2% | 88% | 74.1% | 35.8% | 36.9% |  |  |  |  |  |  |  |  | IC50 [37]: 2.82 µM; IC50 [38]: 1.59 µM
